Legend:
Format in all cases: cell-based
[1] = molecular target: T1, ABCC6 WT (Homo sapiens, UniProt O95255); assay: ABCC6 WT assay: HiBit protein expression; details: HEK-293 cells transiently expressing HiBit-tagged ABCC6 WT; 24 h treatment; top concentration 20 μM; read-out: ABCC6 WT EC50, Emax
T1 construct: expressed in transfected cells; host or cells: HEK-293 (transient, Lipofectamine 2000)
Outline: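 HEK-293 cells transiently transfected with HiBit-tagged human ABCC6 WT cDNA, seeded 24 h post-transfection, treated 24 h at 37° C with ten 2-fold doses (top 20 μM final, 0.15% DMSO). HiBit lytic luminescence reports protein expression; Emax and EC50 derived.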

[2] = molecular target: T2, ABCB4 WT (Homo sapiens, UniProt P21439); assay: ABCB4 WT assay: HiBit protein expression; details: HEK-293 cells stably expressing HiBit-tagged ABCB4 WT; 24 h treatment; top concentration 30 μM; read-out: ABCB4 WT EC50, Emax
T2 construct: expressed in transfected cells
T2 sequence (P21439 whole entry): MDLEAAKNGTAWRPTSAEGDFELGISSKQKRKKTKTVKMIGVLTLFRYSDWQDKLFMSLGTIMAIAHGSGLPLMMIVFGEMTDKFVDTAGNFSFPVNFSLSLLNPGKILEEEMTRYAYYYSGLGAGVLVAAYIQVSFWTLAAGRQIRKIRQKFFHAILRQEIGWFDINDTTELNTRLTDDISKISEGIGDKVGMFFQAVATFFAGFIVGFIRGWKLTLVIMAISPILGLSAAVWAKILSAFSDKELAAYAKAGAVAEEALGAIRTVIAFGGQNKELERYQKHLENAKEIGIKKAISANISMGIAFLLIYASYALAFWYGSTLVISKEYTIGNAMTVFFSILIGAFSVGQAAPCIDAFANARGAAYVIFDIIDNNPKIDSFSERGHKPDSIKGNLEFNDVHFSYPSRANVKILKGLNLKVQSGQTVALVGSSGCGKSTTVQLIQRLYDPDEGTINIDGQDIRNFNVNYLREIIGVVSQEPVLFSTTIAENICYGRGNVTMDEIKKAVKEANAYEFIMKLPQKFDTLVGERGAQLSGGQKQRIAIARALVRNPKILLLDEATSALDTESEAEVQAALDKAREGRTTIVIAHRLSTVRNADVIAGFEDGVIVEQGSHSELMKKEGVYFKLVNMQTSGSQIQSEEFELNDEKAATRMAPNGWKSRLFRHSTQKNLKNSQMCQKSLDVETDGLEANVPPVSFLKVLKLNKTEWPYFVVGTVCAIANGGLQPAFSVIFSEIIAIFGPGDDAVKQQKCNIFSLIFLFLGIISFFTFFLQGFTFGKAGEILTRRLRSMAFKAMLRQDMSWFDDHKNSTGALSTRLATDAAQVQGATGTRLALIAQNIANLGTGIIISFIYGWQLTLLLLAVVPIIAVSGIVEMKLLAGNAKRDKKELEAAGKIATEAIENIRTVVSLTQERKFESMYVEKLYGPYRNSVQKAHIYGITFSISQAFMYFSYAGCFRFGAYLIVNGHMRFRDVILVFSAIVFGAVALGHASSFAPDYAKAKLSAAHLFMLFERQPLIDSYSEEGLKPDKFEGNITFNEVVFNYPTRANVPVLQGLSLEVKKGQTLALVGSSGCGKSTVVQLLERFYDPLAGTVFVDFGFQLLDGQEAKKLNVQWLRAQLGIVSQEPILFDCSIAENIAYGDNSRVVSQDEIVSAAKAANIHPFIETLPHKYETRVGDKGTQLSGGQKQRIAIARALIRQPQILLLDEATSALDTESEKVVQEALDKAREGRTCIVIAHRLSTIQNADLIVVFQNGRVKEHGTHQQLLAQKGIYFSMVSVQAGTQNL
Outline: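 HEK-293 cells stably expressing HiBit-tagged human ABCB4 WT, treated 24 h at 37 °C with 11-dose 3-fold dilutions, top final 30 μM in 0.3% DMSO. HiBit lytic reagent luminescence read after 1 h at 25 °C; Emax and EC50 derived.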

[3] = molecular target: T3, ABCA4 P1380L (Homo sapiens, UniProt P78363, P1380L); assay: A4 correction dose-response assay: ABCA4 P1380L HiBit protein expression; details: HEK-293 cells stably expressing HiBit-tagged ABCA4 P1380L; 24 h treatment; top concentration 30 μM; read-out: ABCA4 P1380L EC50, Emax
T3 construct: expressed in transfected cells
T3 sequence (P78363 whole entry P1380L): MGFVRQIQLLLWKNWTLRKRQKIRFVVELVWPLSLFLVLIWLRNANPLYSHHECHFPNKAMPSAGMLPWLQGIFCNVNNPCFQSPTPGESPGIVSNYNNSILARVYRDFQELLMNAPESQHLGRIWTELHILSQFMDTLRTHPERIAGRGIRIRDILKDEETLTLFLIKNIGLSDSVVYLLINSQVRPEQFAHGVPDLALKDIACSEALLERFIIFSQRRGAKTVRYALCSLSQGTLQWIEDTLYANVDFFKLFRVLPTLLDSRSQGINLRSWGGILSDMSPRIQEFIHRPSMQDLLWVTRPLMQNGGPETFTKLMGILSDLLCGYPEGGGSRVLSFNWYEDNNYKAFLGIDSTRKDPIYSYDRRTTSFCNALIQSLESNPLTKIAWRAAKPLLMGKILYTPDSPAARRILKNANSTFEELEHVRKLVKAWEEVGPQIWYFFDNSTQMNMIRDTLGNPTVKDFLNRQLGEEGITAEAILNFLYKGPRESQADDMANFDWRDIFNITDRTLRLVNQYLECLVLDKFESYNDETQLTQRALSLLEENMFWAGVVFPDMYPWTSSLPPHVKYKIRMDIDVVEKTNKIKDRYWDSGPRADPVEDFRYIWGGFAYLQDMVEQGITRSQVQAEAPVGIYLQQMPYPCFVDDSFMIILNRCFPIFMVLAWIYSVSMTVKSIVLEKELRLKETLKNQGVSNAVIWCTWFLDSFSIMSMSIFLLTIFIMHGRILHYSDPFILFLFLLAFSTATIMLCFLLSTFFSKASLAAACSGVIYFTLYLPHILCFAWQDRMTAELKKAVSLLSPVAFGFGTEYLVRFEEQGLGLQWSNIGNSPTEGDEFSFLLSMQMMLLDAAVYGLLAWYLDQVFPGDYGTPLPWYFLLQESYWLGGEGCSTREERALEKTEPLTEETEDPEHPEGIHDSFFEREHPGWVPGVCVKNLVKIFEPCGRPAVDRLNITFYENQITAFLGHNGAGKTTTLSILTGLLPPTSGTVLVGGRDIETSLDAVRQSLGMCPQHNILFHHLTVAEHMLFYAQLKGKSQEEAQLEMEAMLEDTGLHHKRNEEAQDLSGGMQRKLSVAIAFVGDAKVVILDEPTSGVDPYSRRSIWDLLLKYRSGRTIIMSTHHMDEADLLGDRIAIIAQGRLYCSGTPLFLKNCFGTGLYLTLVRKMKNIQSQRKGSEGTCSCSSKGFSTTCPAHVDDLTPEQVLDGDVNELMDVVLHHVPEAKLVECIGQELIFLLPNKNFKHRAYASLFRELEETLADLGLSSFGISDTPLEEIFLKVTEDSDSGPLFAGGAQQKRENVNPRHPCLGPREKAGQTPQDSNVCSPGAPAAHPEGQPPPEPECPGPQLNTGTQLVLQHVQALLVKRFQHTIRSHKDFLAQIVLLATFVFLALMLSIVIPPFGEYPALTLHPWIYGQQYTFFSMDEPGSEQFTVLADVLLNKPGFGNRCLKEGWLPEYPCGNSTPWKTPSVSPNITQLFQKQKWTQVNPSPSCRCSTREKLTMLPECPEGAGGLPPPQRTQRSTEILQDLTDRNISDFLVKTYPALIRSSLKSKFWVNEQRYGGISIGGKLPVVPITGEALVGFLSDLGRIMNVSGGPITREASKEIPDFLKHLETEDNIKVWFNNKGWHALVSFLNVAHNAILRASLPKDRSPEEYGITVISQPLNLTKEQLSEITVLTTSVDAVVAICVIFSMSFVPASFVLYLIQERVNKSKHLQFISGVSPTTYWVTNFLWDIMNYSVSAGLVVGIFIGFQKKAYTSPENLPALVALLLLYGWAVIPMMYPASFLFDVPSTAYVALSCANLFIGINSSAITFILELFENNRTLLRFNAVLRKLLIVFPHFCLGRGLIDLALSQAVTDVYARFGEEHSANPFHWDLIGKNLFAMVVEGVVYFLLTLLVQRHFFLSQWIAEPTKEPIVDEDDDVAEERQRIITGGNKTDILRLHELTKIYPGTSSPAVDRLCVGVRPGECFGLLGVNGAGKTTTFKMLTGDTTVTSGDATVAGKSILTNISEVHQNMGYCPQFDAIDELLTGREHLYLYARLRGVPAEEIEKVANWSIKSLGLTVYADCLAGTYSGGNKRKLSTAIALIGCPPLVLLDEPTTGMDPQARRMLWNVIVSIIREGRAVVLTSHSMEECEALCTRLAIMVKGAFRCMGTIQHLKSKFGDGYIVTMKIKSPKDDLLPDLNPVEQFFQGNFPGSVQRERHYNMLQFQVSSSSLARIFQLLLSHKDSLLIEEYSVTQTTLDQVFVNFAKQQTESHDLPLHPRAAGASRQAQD
Outline: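 Cells transfected with HiBit-tagged human ABCA4 P1380L cDNA were treated for 24 h at 37°C with an eleven-point dilution series (top final 30 μM, 0.3% DMSO).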

T1 sequence (O95255 whole entry): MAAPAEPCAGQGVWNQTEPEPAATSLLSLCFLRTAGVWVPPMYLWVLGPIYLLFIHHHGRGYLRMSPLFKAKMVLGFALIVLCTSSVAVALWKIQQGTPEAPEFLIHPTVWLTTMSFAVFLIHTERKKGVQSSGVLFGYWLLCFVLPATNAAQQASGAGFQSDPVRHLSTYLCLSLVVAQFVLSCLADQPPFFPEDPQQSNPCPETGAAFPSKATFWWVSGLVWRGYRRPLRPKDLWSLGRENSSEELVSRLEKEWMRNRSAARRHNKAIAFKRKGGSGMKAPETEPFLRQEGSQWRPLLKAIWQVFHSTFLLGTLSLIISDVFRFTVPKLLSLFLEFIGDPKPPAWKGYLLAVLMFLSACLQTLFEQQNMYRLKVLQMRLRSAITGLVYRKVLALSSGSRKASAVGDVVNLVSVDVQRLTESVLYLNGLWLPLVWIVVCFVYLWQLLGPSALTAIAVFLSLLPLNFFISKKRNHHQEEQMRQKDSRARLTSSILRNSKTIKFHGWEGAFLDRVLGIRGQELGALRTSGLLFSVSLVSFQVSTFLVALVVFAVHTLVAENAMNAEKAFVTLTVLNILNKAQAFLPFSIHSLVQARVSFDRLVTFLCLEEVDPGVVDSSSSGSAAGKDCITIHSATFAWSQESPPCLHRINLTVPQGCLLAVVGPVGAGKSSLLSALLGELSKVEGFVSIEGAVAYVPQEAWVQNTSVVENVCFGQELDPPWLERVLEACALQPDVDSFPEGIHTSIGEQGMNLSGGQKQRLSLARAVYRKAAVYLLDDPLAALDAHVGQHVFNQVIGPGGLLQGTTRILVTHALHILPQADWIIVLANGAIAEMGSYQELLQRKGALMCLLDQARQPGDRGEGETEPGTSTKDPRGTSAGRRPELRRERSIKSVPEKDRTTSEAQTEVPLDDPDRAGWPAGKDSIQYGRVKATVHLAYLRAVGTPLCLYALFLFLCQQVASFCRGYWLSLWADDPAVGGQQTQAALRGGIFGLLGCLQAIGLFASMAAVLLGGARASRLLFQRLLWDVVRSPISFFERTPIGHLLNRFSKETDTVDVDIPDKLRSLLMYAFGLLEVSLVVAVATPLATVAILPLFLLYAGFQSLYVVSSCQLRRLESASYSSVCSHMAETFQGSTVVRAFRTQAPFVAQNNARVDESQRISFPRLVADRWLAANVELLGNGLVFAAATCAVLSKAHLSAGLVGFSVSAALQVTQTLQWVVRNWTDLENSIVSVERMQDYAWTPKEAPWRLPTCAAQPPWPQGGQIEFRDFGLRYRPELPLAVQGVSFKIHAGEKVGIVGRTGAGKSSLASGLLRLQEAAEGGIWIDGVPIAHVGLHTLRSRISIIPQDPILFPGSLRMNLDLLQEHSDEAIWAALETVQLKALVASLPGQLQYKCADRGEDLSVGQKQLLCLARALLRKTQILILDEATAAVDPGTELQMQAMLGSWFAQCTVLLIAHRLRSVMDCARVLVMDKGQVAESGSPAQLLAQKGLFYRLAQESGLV

SMILES	EC50 [1]	EC50 [2]	EC50 [3]
Cc1cc(C)c(Oc2nc(-c3cncc(C(N)=O)c3)ccc2NS(C)(=O)=O)c(C2CC2)n1 [Compound I-1]	< 1 µM	≥ 25 µM	< 1 µM
Cc1cc(C)c(Oc2nc(-c3cn[nH]c3)ccc2NS(C)(=O)=O)c(C2CC2)c1 [Compound I-2]	10 to 25 µM	≥ 25 µM	> 25 µM
Cc1ccc(Oc2nc(-c3cncc(C#N)c3)ccc2NS(C)(=O)=O)c(C)n1 [Compound I-3]	< 1 µM	< 1 µM	< 1 µM
Cc1cc(C)c(Oc2nc(-c3cncc(Cl)c3)ccc2N(C2CC2)S(C)(=O)=O)c(C)c1 [Compound I-42]	1 to 10 µM	≥ 25 µM	1 to 10 µM
Cc1cc(C)c(Oc2nc(N3CC4(C3)CN(S(=O)(=O)C3CC3)C4)ccc2NS(C)(=O)=O)c(C)c1 [Compound I-43]	≥ 25 µM	≥ 25 µM	> 25 µM
Cc1cc(C)c(Oc2nc(N3CCN(S(=O)(=O)C4CC4)CC3)ccc2NS(C)(=O)=O)c(C)c1 [Compound I-44]	1 to 10 µM	≥ 25 µM	10 to 25 µM
Cc1cc(C)c(Oc2nc(-c3ccc(C#N)nc3)ccc2NS(C)(=O)=O)c(C)c1 [Compound I-45]	< 1 µM	≥ 25 µM	< 1 µM
Cc1cc(C)c(Oc2nc(-c3cncc(Cl)c3)ccc2NS(C)(=O)=O)c(C)n1 [Compound I-46]	< 1 µM	< 25 µM	< 1 µM
Cc1cc(C)c(Oc2nc(N3CCN(C(=O)C4CC4)CC3)ccc2NS(C)(=O)=O)c(C)c1 [Compound I-47]	1 to 10 µM	< 1 µM	> 25 µM
Cc1cc(C)c(Oc2nc(-c3cncc(Cl)c3)ccc2N(C)S(C)(=O)=O)c(C)c1 [Compound I-48]	< 1 µM	< 1 µM	> 25 µM
Cc1cc(C)c(Oc2nc(-c3cncc(Cl)c3)ccc2NS(=O)(=O)C2CC2)c(C)c1 [Compound I-49]	< 1 µM	< 1 µM	> 25 µM
CC(=O)NC1CN(c2ccc(NS(=O)(=O)c3cccnc3)c(Oc3c(C)cc(C)cc3C3CC3)n2)C1 [Compound I-50]	< 25 µM	1 to 10 µM	> 25 µM
COC1CC(S(=O)(=O)Nc2ccc(-c3cncc(Cl)c3)nc2Oc2c(C)cc(C)cc2C)C1 (stereo not drawn) [Compound I-51]	< 1 µM	< 1 µM	< 1 µM
Cc1cc(C)c(Oc2nc(-c3cncc(Cl)c3)ccc2N(C)S(=O)(=O)c2cnn(C)c2)c(C2CC2)c1 [Compound I-52]	< 1 µM	1 to 10 µM	1 to 10 µM
Cc1cc(C)c(Oc2nc(-c3cncc(Cl)c3)ccc2N(C)S(=O)(=O)c2cccnc2)c(C2CC2)c1 [Compound I-53]	1 to 10 µM	≥ 25 µM	1 to 10 µM
Cc1cc(C)c(Oc2nc(-c3cncc(Cl)c3)ccc2NS(=O)(=O)c2cccnc2)c(C2CC2)c1 [Compound I-54]	< 1 µM	≥ 25 µM	< 25 µM

SMILES	EC50 [1]	EC50 [2]	EC50 [3]
Cc1cc(C)c(Oc2nc(-c3cncc(Cl)c3)ccc2NS(C)(=O)=O)c(C)c1 [Compound I-55]	< 1 µM	≥ 25 µM	> 25 µM
Cc1cc(C)c(Oc2cc(-c3cncc(Cl)c3)ncc2NS(C)(=O)=O)c(C)c1 [Compound I-56]	< 1 µM	≥ 25 µM	> 25 µM
Cc1cc(C)c(Oc2nc(-c3cncc(Cl)c3)ccc2NS(C)(=O)=O)c(C2CC2)c1 [Compound I-57]	< 1 µM	< 25 µM	1 to 10 µM
Cc1cc(C)c(Oc2nc(-c3cncc(Cl)c3)ccc2NS(=O)(=O)c2cnn(C)c2)c(C2CC2)c1 [Compound I-58]	< 25 µM	≥ 25 µM	> 25 µM
Cc1cc(C)c(Oc2cc(-c3cncc(Cl)c3)cnc2N(C)S(=O)(=O)c2cnn(C)c2)c(C)c1 [Compound I-59]	≥ 25 µM	≥ 25 µM	1 to 10 µM
Cc1cc(C)c(Oc2cc(-c3cncc(Cl)c3)cnc2NS(C)(=O)=O)c(C)c1 [Compound I-60]	1 to 10 µM	≥ 25 µM	< 25 µM
Cc1cc(C)c(Oc2cc(-c3cncc(Cl)c3)cnc2NS(=O)(=O)c2cnn(C)c2)c(C)c1 [Compound I-61]	1 to 10 µM	≥ 25 µM	> 25 µM
Cc1cc(C)c(Oc2nc(-c3cncc(Cl)c3)ccc2NS(=O)(=O)Cc2ccccn2)c(C)c1 [Compound I-62]	≥ 25 µM	≥ 25 µM	> 25 µM
COc1ccc2nc[nH]c2c1S(=O)(=O)Nc1ccc(-c2cncc(Cl)c2)nc1Oc1c(C)cc(C)cc1C [Compound I-63]	< 1 µM	≥ 25 µM	10 to 25 µM
Cc1cc(C)c(Oc2nc(-c3cncc(Cl)c3)ccc2N(C)S(=O)(=O)Cc2ccccc2)c(C)c1 [Compound I-64]	< 25 µM	< 25 µM	1 to 10 µM
Cc1cc(C)c(Oc2nc(-c3cncc(Cl)c3)ccc2NS(=O)(=O)Cc2ccccc2)c(C)c1 [Compound I-65]	≥ 25 µM	≥ 25 µM	> 25 µM
Cc1cc(C)c(Oc2nc(-c3cncc(Cl)c3)ccc2N2CCCCS2(=O)=O)c(C)c1 [Compound I-66]	1 to 10 µM	≥ 25 µM	> 25 µM
Cc1cc(C)c(Oc2nc(-c3cncc(Cl)c3)ccc2N2CCCS2(=O)=O)c(C)c1 [Compound I-67]	1 to 10 µM	1 to 10 µM	> 25 µM
Cc1cc(C)c(Oc2nc(-c3cncc(Cl)c3)ccc2NS(=O)(=O)C(C)(C)C)c(C)c1 [Compound I-68]	≥ 25 µM	≥ 25 µM	> 25 µM
Cc1cc(C)c(Oc2nc(-c3cncc(Cl)c3)ccc2N(C)S(=O)(=O)c2cccnc2)c(C)c1 [Compound I-69]	< 1 µM	< 25 µM	1 to 10 µM
Cc1cc(C)c(Oc2nc(-c3cncc(Cl)c3)ccc2N(C)S(=O)(=O)c2cnn(C)c2)c(C)c1 [Compound I-70]	< 1 µM	≥ 25 µM	> 25 µM

Continued, values first:

EC50 [1]	EC50 [2]	EC50 [3]	SMILES
1 to 10 µM	≥ 25 µM	< 25 µM	Cc1cc(C)c(Oc2nc(-c3cncc(Cl)c3)ccc2S(=O)(=O)NC(c2ccccn2)C(F)(F)F)c(C)c1 (single isomer, unassigned) [Compound I-79]
≥ 25 µM	≥ 25 µM	> 25 µM	Cc1cc(C)c(Oc2nc(-c3cncc(Cl)c3)ccc2S(=O)(=O)NC(c2ccccn2)C(F)(F)F)c(C)c1 (single isomer, unassigned) [Compound I-80]
< 1 µM	≥ 25 µM	> 25 µM	Cc1cc(C)c(Oc2nc(-c3cncc(Cl)c3)ccc2NS(=O)(=O)c2cccnc2)c(C)c1 [Compound I-71]
1 to 10 µM	≥ 25 µM	> 25 µM	Cc1cc(C)c(Oc2nc(-c3cncc(Cl)c3)ccc2NS(=O)(=O)c2cnn(C)c2)c(C)c1 [Compound I-72]
1 to 10 µM	< 1 µM	< 1 µM	CNS(=O)(=O)c1ccc(N2CCN(C(=O)C3CC3)CC2)nc1Oc1c(C)cc(C)cc1C [Compound I-73]
1 to 10 µM	1 to 10 µM	1 to 10 µM	COC1CC(NS(=O)(=O)c2ccc(-c3cncc(Cl)c3)nc2Oc2c(C)cc(C)cc2C2CC2)C1 (stereo not drawn) [Compound I-74]
< 25 µM	1 to 10 µM	1 to 10 µM	Cc1cc(C)c(Oc2nc(-c3cncc(Cl)c3)ccc2S(=O)(=O)Nc2cnn(C)c2)c(C2CC2)c1 [Compound I-75]
≥ 25 µM	1 to 10 µM	> 25 µM	Cc1cc(C)c(Oc2nc(-c3cncc(Cl)c3)ccc2S(=O)(=O)NCc2ccccn2)c(C2CC2)c1 [Compound I-76]
< 1 µM	1 to 10 µM	< 25 µM	CNS(=O)(=O)c1ccc(-c2cncc(Cl)c2)nc1Oc1c(C)cc(C)cc1C1CC1 [Compound I-77]
< 1 µM	< 25 µM	1 to 10 µM	COC1CC(NS(=O)(=O)c2ccc(-c3cncc(Cl)c3)nc2Oc2c(C)cc(C)cc2C)C1 (stereo not drawn) [Compound I-78]
1 to 10 µM	< 25 µM	1 to 10 µM	Cc1cc(C)c(Oc2nc(-c3cncc(Cl)c3)ccc2S(=O)(=O)N[C@H](c2ccccc2)C(F)(F)F)c(C)c1 [Compound I-81]
1 to 10 µM	≥ 25 µM	1 to 10 µM	Cc1cc(C)c(Oc2nc(-c3cncc(Cl)c3)ccc2S(=O)(=O)N[C@@H](c2ccccc2)C(F)(F)F)c(C)c1 [Compound I-83]
≥ 25 µM	≥ 25 µM	< 25 µM	CNS(=O)(=O)c1cnc(-c2cncc(Cl)c2)cc1Oc1c(C)cc(C)cc1C [Compound I-84]
≥ 25 µM	< 25 µM	> 25 µM	Cc1cc(C)c(Oc2nc(-c3cncc(Cl)c3)ccc2S(=O)(=O)N(C)Cc2ccccc2)c(C)c1 [Compound I-85]
1 to 10 µM	1 to 10 µM	< 25 µM	Cc1cc(C)c(Oc2nc(-c3cncc(Cl)c3)ccc2S(=O)(=O)NCc2ccccn2)c(C)c1 [Compound I-86]
